Structures are written as SMILES.

The source of these data is ChEMBL document CHEMBL5726262, “BET protein-inhibiting 5-aryltriazoleazepines” (2017).

The target in the assay is Bromodomain-containing protein 4 (Homo sapiens, UniProt O60885). Kind of assay: Time-Resolved Fluorescence Resonance energy Transfer (TR-FRET) Assay: For this purpose, a time-resolved fluorescence resonance energy transfer (TR-FRET) assay was used, which measures the binding between N-terminally His6-tagged BRD4(1) (amino acids 44-168) and a synthetic acetylated histone H4 (Ac-H4) peptide with sequence GRGK(Ac)GGK(Ac)GLGK(Ac)GGAK(Ac)RHGSGSK-biotin. The recombinant BRD4 protein produced in-house according to Filippakopoulos et al., Cell, 2012, 149:214-231 was expressed in E. coli and purified by means of (Ni-NTA) affinity and (Sephadex G-75) size exclusion chromatography. The Ac-H4 peptide can be purchased, for example, from Biosyntan (Berlin, Germany).In the assay, typically 11 different concentrations of each substance (0.1 nM, 0.33 nM, 1.1 nM, 3.8 nM, 13 nM, 44 nM, 0.15 μM, 0.51 μM, 1.7 μM, 5.9 μM and 20 μM) were analysed as duplicates on the same microtitre plate. For this purpose, 100-fold concentrated solutions in DMSO were prepared by serial dilutions (1:3.4) of a 2 mM stock solution into a clear, 384-well microtitre plate (Greiner Bio-One, Frickenhausen, Germany). From this, 50 nl were transferred into a black test plate (Greiner Bio-One, Frickenhausen, Germany). […].

`Cc1nnc2n1-c1ccc(OC(F)(F)F)cc1C(c1ccc(Cl)cc1)=C[C@H]2CC(=O)N1CC2(COC2)C1`: the IC50 was 220 nM.
